In PubChem BioAssay AID1996:
Values after ≈ are worked out from the molar mass of the structure shown.

Conditions: buffer; pH 7.4; 200.0 µM

SMILES	solubility kinetic
O=[N+]([O-])c1ccc(CN2CCN(c3ccc(F)cc3)CC2)o1	15 µg/mL (≈ 49.1 µM)
CC1CCCC(NC(=O)Cn2cc(Br)ccc2=O)C1C (centres undefined)	> 51.2 µg/mL
C#CCn1ccc(O)c(Cc2c(F)cccc2Cl)c1=O	> 43.8 µg/mL
COc1cc(C(=O)Nc2ccc3c(c2)ncn3C)cc(OC)c1OC	> 51.2 µg/mL
O=C(CCCCCN1C(=O)c2ccccc2C1=O)Nc1cccc(O)c1	38.4 µg/mL (≈ 109 µM)
O=S(=O)(NCCc1ccccc1)c1ccc(Br)cc1	3.5 µg/mL (≈ 10.3 µM)
CCOc1ccccc1C(=O)OCC(=O)NCc1ccc2c(c1)OCO2	> 53.6 µg/mL
Cc1cc(N2CCOCC2)n2cc(-c3ccccc3)nc2n1	12.3 µg/mL (≈ 41.8 µM)
O=C(NC12CC3CC(CC(C3)C1)C2)N1CCN(c2ccccc2)CC1	12.7 µg/mL (≈ 37.4 µM)
CCCOc1ccc(N2C(=O)C/C(=C\c3ccccc3)C2=O)cc1	< 0.7 µg/mL
N#CCSc1nc2sccc2c(=O)n1-c1ccccc1	37 µg/mL (≈ 124 µM)
CCCc1c(C)nc2c(OC)cccc2c1SCC(=O)O	42.5 µg/mL (≈ 139 µM)
CC1Oc2ccccc2N(CC(=O)NC2CC2)C1=O (centres undefined)	> 39 µg/mL
CCNC(=O)C12CCC(C)(c3nc4cc(C)c(C)cc4nc31)C2(C)C (centres undefined)	47.4 µg/mL (≈ 140 µM)
Cc1cccc(NC(=O)C(=O)NCCc2c[nH]c3ccccc23)c1C	1.4 µg/mL (≈ 4.17 µM)
O=C(Cc1ccc(F)cc1)Nc1ccc(Cl)cn1	8.1 µg/mL (≈ 30.6 µM)
COc1ccc(N2Cc3ccc(OC)c(OC)c3C2=O)cc1	> 44.9 µg/mL
O=C(CCN1C(=O)c2cccc([N+](=O)[O-])c2C1=O)Nc1nccs1	49.3 µg/mL (≈ 142 µM)
COc1ccc(C)cc1S(=O)(=O)n1cnc2ccccc21	6.8 µg/mL (≈ 22.5 µM)
OC(CN1CCN(c2cccc(Cl)c2)CC1)c1ccccc1 (centres undefined)	16.1 µg/mL (≈ 50.8 µM)
CC(=O)c1ccc2noc(-c3ccccc3)c2c1	31.8 µg/mL (≈ 134 µM)
CCCCNC(=O)Nc1ccc(C2SCCS2)cc1	9.9 µg/mL (≈ 33.4 µM)
O=C(O)CC(Cc1ccc(Cl)cc1)C(=O)Nc1cc(Cl)ccc1Cl (centres undefined)	42.1 µg/mL (≈ 109 µM)
O=C(Nc1nnc(C2=COCCO2)o1)c1ccc(F)cc1	> 43.7 µg/mL

SMILES	solubility kinetic
COc1cc(NC(=O)CSCc2ccccc2)c(C(=O)O)cc1OC	52.6 µg/mL (≈ 146 µM)
COc1ccccc1OCC(=O)Nc1nc(C)c(C)s1	> 43.9 µg/mL
O=C(Nc1cccnc1Cl)c1cc(-c2cccc(O)c2)on1	0.3 µg/mL (≈ 0.95 µM)
NS(=O)(=O)c1cccc(NC(=O)CSc2nnc(-c3ccccc3)o2)c1	> 58.6 µg/mL
Cc1ccccc1C(=O)NC1CCN(CC(=O)NCc2ccccc2)CC1	47.7 µg/mL (≈ 131 µM)
COc1ccc(C(=O)NCc2ccc3c(c2)cc(C)n3C)cc1OC	4.7 µg/mL (≈ 13.9 µM)
CCOC(=O)c1c2c([nH]c(=S)c1C#N)CCCC2	29.5 µg/mL (≈ 112 µM)
O=C(NCc1ccco1)c1ccc([N+](=O)[O-])cc1Cl	40 µg/mL (≈ 143 µM)
Cc1ccc(C)c(S(=O)(=O)c2c[nH]c(=S)[nH]c2=O)c1	36.6 µg/mL (≈ 123 µM)
O=C(CNS(=O)(=O)c1ccc(F)cc1)Nc1ccccc1	44.1 µg/mL (≈ 143 µM)
CCOC(=O)C1CCN(S(=O)(=O)c2ccc(-c3ccccn3)s2)CC1	3.9 µg/mL (≈ 10.2 µM)
COc1ccccc1CNC(=O)CNC(=O)c1sc2ccccc2c1Cl	7.6 µg/mL (≈ 19.5 µM)
CN1CCc2c(sc(N)c2C(=O)c2ccc(Cl)cc2)C1	41.5 µg/mL (≈ 135 µM)
Cc1cc(=O)oc2cc(NC(=O)c3cccc(F)c3)ccc12	< 0.6 µg/mL
CCN(CC)C(=O)c1cccc2c1-c1ccccc1C2=O	41.5 µg/mL (≈ 149 µM)
O=[N+]([O-])c1cccnc1Sc1ccc(Br)cc1	1.7 µg/mL (≈ 5.46 µM)
COc1cc(S(=O)(=O)NCc2ccc3c(c2)OCO3)ccc1F	14.8 µg/mL (≈ 43.6 µM)
c1ccc(-c2ncc(CN3CCN(c4ccccn4)CC3)[nH]2)cc1	45.2 µg/mL (≈ 142 µM)
COc1ccc(CNC(=O)CN2CCN(S(=O)(=O)c3c(C)c(C)cc(C)c3C)CC2)cc1OC	3.5 µg/mL (≈ 7.15 µM)
C=CCNc1nc(Cl)nc(NC2CCCCC2)n1	6.9 µg/mL (≈ 25.8 µM)
NC(CSCc1cccc(Br)c1)C(=O)O (centres undefined)	> 43.5 µg/mL
CC1CCN(CCc2nc3ccccc3[nH]2)CC1	33.7 µg/mL (≈ 138 µM)
COc1ccccc1N1CCN(CC(=O)Nc2nccs2)CC1	> 49.9 µg/mL
Cc1cc(OCC(=O)N(C)C2CCCCC2)ccc1Cl	35.5 µg/mL (≈ 120 µM)

SMILES	solubility kinetic
N#C/C(=C\c1cccnc1)C(=O)Nc1ccc(O)cc1F	> 42.5 µg/mL
COc1cccc(CC(CC(=O)O)C(=O)Nc2cc(C)ccc2C)c1 (centres undefined)	35.7 µg/mL (≈ 105 µM)
CN(C)S(=O)(=O)c1cccc(NC(=O)CC23CC4CC(CC(C4)C2)C3)c1	10.8 µg/mL (≈ 28.7 µM)
Cc1cc(NC(=O)COc2cccc([N+](=O)[O-])c2)no1	2.9 µg/mL (≈ 10.5 µM)
Cl.O=[N+]([O-])c1ccc(OCC(O)CNC2CCCC2)cc1 (centres undefined)	> 47.5 µg/mL
Cc1ccc2c(NC(=S)NC(=O)c3ccccc3)cccc2n1	11.3 µg/mL (≈ 35.2 µM)
Cc1nc2ccccc2c(=O)n1-c1ccc(-c2ccccc2)cc1	< 0.3 µg/mL
CCc1ccccc1NS(=O)(=O)Cc1ccccc1	40.2 µg/mL (≈ 146 µM)
CCCC(C)NC(=O)C1c2ccccc2Oc2ccccc21 (centres undefined)	1.2 µg/mL (≈ 4.06 µM)
Cc1cccc(CN2CCSCC2)c1	7 µg/mL (≈ 33.8 µM)
O=C(CCCc1ccccc1)NCc1ccccn1	29.2 µg/mL (≈ 115 µM)
C=C(C)CN1C(=O)C2(OCCO2)c2cc(Br)ccc21	41.1 µg/mL (≈ 127 µM)
COCC1CCCN(Cc2nc(Cc3ccccc3)no2)C1 (centres undefined)	44.7 µg/mL (≈ 148 µM)
COc1ccccc1CN(C)C(=O)CN1C(=O)c2ccccc2C1=O	17 µg/mL (≈ 50.2 µM)
CN(CCOc1ccc(Cl)cc1)C(=O)C1=CC=CN2CCS(=O)(=O)N=C12	> 59.4 µg/mL
Cc1cccc(C(=O)NCC(=O)OCC(=O)NC2CCCCC2)c1	> 49.9 µg/mL
O=C(O)/C=C/C(=O)NCCC(c1ccccc1)c1ccccc1	> 46.4 µg/mL
COc1cc2c(cc1OC)C(NC(=O)C(F)(F)F)C/C2=N\O (centres undefined)	> 47.7 µg/mL
CC(C)CN(C(=O)CSc1nncn1C)C1CCS(=O)(=O)C1 (centres undefined)	> 52 µg/mL
Cc1c(C)c2ccc(OCC(=O)Nc3cccnc3)cc2oc1=O	1.3 µg/mL (≈ 4.01 µM)
O=C1c2ccccc2-c2cccc(C(=O)N3CCCCC3)c21	36.7 µg/mL (≈ 126 µM)
C=CCN(C(=O)COC(=O)c1cc[n+]([O-])cc1)c1nc(-c2ccccc2)cs1	6.1 µg/mL (≈ 15.4 µM)
Cc1cnc(NS(=O)(=O)c2ccccc2)c(Br)c1	> 49.1 µg/mL
CCOc1cc(/C=N/OC(C)=O)ccc1OCc1ccccc1	27.2 µg/mL (≈ 86.8 µM)

SMILES	solubility kinetic
CN(C)C(CNC(=O)c1ccc(NC(=O)CC#N)cc1)c1ccccc1 (centres undefined)	> 52.6 µg/mL
Cn1c(=O)c2c(ncn2CC(=O)Nc2nccs2)n(C)c1=O	26.1 µg/mL (≈ 81.5 µM)
O=C(NC1CCCc2ccccc21)c1c(F)cccc1Cl (centres undefined)	8.3 µg/mL (≈ 27.3 µM)
O=C(NCc1ccccc1F)c1ccc2c(c1)OCCO2	> 43.1 µg/mL
CC(=O)c1ccc(NC(=O)CCCC(=O)c2ccccc2)cc1	3.6 µg/mL (≈ 11.6 µM)
CC(C)C(=O)Nc1ccc(N2CCOCC2)c(S(=O)(=O)Nc2ccccc2Cl)c1	2.8 µg/mL (≈ 6.39 µM)
NCC1(CC(=O)O)CCCCC1	> 25.7 µg/mL
Cc1ccc(NC(=O)NC2CCCCCCC2)cc1	< 0.3 µg/mL
COc1ccc(/C=C/C(=O)NC2CC3CCC2C3)cc1 (centres undefined)	6.9 µg/mL (≈ 25.4 µM)
CCCN1CN=C(Nc2nc3ccccc3o2)NC1	18.9 µg/mL (≈ 72.9 µM)
CCC(=O)Nc1ccc(NC(=O)c2oc3ccccc3c2C)cc1	1.2 µg/mL (≈ 3.72 µM)
Cc1ncc([N+](=O)[O-])n1Cc1cccc(F)c1	> 35.3 µg/mL
Cc1ccc(/C=C/C(=O)OCC(=O)c2ccc3c(c2)NC(=O)CO3)o1	17.8 µg/mL (≈ 52.2 µM)
O=C(NCCCO)C(=O)Nc1cc2c3c(c1)CCN3C(=O)CC2	> 47.6 µg/mL
O=c1oc2ccccc2c(N2CCOCC2)c1[N+](=O)[O-]	> 41.4 µg/mL
Cc1nc2ccc(NC(=O)c3ccc(=O)[nH]c3)cc2s1	13.7 µg/mL (≈ 48 µM)
Cc1cccc(OCCCC(=O)N2CCCCCC2)c1C	26.9 µg/mL (≈ 92.9 µM)
O=C1CN(C(=O)COC(=O)c2ccc(C(F)(F)F)cc2)c2ccccc2N1	2.4 µg/mL (≈ 6.34 µM)
CC(=O)Nc1ccc(NC(=O)CNC(=O)c2cccc(C)c2)cc1	20.4 µg/mL (≈ 62.7 µM)
Cc1ccccc1CC(=O)N1CCN(C(=O)c2ccco2)CC1	> 46.9 µg/mL
Cl.c1ccc2c(c1)CC(N1CCCCC1)c1ccccc1S2 (centres undefined)	1.8 µg/mL
CC(C)(C)CC(=O)O/N=C(\N)c1ccncc1	> 35.3 µg/mL
CN1C(=O)c2ccccc2Sc2ccc(C(=O)O)cc21	> 42.8 µg/mL
CCN(c1ccccc1)S(=O)(=O)c1ccc(OC)c(NC(=O)c2cc(F)c(F)c(F)c2F)c1	0.7 µg/mL (≈ 1.45 µM)

SMILES	solubility kinetic
CN(C)S(=O)(=O)c1ccc(NC=C(C#N)C#N)cc1	26.3 µg/mL (≈ 95.2 µM)
COc1ccc(NC(=O)Cc2cccc3ccccc23)cc1	2.9 µg/mL (≈ 9.95 µM)
O=C1/C(=C/c2ccccn2)SC(=S)N1c1cccc(O)c1	0.4 µg/mL (≈ 1.27 µM)
O=C(COC(=O)c1ccc(Br)o1)NCc1ccc(Cl)cc1	7.2 µg/mL (≈ 19.3 µM)
O=C(O/N=C1\CCCc2ccccc21)c1cccs1	< 0.6 µg/mL
Cc1cc(=O)oc2cc(NC(=O)c3ccccc3C(=O)O)ccc12	> 48.5 µg/mL
NC(=O)c1cc([N+](=O)[O-])cc2c1C=Cc1ccccc1O2	4.6 µg/mL (≈ 16.3 µM)
COc1ccccc1Nc1nc(C)cc(C)n1	22.1 µg/mL (≈ 96.4 µM)
CCCCOc1ccc(C2C(C(=O)c3ccc(C)o3)=C(O)C(=O)N2Cc2ccco2)cc1 (centres undefined)	46.9 µg/mL (≈ 108 µM)
Cn1cnc2cc(NCc3cccs3)ccc21	27.1 µg/mL (≈ 111 µM)
Cc1ccc(C(=O)N2CCN(Cc3ccccc3)CC2)o1	> 42.7 µg/mL
Cc1noc(C)c1-c1nc(CSc2ccc(Cl)cc2)no1	< 0.2 µg/mL
O=C1CCCC(=O)N1c1ccc(NCCOCCO)c([N+](=O)[O-])c1	> 50.6 µg/mL
COc1cc(OC)cc(C(=O)NCCNC(=O)c2ccccn2)c1	> 49.4 µg/mL
Cc1ccc([N+](=O)[O-])cc1NC(=O)CNC1CCCCC1	39 µg/mL (≈ 134 µM)
O=C(COC(=O)c1cccnc1Cl)NC(=O)NC1CCCCC1	> 51 µg/mL
CCOC(=O)c1cc([N+](=O)[O-])sc1NC(=O)CC	5.3 µg/mL (≈ 19.5 µM)
COc1ccccc1CNC(=O)c1cccnc1	> 36.3 µg/mL
CCN(CC(=O)Nc1c(F)cccc1F)C(=O)c1ccccn1	> 47.9 µg/mL
O=C(NCCNC(=O)c1cccc(O)c1)c1cccc(O)c1	> 45 µg/mL
CC(=O)NCCc1ccc(C(=O)COC(=O)c2cccn2C)cc1	> 49.3 µg/mL
COc1cc2c(cc1OC)C(c1ccc(O)cc1)NCC2 (centres undefined)	> 42.8 µg/mL
Cc1ccc(S(=O)(=O)N2CCOCC2)cc1C(=O)N1CCc2ccccc21	54.3 µg/mL (≈ 141 µM)
